In general, pIC50 refers to the IC50 on a negative log10 scale, so that one unit is a factor of ten. A low value points to a high IC50.

The structures appear in SMILES notation. pIC50: −log10 of the molar value. Where only a bound is given, the exact number is not on record here.

This passage reports IC50 results from patent US9884063B2, “Amido-substituted azole compounds” (Bayer Pharma Aktiengesellschaft, priority 2014, dated 2018).

This test addresses T1, TNKS1 (Homo sapiens, UniProt O95271).
T1 sequence (O95271 1-1327): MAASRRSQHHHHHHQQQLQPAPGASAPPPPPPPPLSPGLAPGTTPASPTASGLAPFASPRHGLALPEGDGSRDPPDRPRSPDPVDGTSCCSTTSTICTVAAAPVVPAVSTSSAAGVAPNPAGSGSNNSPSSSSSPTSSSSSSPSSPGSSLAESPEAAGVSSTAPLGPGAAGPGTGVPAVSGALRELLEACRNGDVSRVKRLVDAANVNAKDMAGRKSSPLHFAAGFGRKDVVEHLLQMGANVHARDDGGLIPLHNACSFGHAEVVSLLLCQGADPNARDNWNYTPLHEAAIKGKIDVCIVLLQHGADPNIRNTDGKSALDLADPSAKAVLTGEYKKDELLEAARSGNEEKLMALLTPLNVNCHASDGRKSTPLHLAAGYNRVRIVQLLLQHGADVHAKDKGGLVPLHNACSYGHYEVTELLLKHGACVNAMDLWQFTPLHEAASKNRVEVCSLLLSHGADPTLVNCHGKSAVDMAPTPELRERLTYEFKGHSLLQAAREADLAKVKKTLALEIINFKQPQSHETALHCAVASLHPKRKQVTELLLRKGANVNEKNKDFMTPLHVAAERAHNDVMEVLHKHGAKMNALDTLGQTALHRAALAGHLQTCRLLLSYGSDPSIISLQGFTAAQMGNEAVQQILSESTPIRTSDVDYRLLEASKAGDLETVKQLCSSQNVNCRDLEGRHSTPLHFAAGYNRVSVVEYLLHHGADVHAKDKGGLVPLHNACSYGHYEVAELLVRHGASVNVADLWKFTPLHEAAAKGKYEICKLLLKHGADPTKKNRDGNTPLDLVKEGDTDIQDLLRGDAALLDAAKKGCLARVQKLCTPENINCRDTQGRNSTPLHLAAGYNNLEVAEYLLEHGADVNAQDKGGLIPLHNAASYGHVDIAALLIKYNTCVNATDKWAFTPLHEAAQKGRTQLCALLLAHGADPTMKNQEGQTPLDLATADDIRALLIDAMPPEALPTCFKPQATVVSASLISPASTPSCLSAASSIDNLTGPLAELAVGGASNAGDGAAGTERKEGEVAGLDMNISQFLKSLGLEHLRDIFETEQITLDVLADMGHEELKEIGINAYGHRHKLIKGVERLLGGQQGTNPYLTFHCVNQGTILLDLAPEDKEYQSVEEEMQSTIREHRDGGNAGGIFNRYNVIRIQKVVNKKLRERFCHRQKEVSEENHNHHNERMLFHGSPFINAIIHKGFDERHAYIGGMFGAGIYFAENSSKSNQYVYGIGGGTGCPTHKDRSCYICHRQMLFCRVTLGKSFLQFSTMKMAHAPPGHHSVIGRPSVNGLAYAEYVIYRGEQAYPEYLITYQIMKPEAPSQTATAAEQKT
Briefly: Modified TNKS1 Assay 3 (BPS kit #80573, biotin-NAD+, 96 well). Format: biochemical. The conditions noted are these: human TNKS1, BPS kit #80573, 96 well. The procedure:
The potency of the compounds against human TNKS1 according to the invention was assessed using a commercially available biotin/streptavidin binding assay kits from BPS Bioscience, San Diego, USA (Catalog #80573 for TNKS1). The incorporation of a biotin-labeled NAD+ during the […] catalyzed ribosylation of a suitable protein substrate was detected using with a streptavidin-HRP coupled chemi-luminescent readout. The intensity of the readout signal is proportional to the incorporated NAD^+. Inhibition of TNKS1 leads to a decreased incorporation of NAD^+ and consequently to a lower readout signal intensity in the corresponding TNKS1 assays. The concentration of a test compound that inhibits the enzyme activity by 50% (corresponds to half of the normed readout signal intensity) is reported as IC50. The assay was conducted in a 96 well MTP format according to the manufacturer's protocol and using a BMG Pherastar MTP reader [BMG-Labtech, Offenburg, Germany].
As to `CNC(=O)c1nc[nH]c1C(=O)Nc1ccc(NC(=O)c2cc(F)c(F)cc2Cl)cc1` [Example 242, N^5-{4-[(2-chloro-4,5-difluorobenzoyl)amino]phenyl}-N^4-methyl-1H-imidazole-4,5-dicarboxamide], the pIC50 was 6.42.
On to `O=C(Nc1ccc(NC(=O)c2nc[nH]c2C(=O)NCCN2CCCCC2)cc1)c1ccc(F)cc1Br` [Example 216, N^4-{4-[(2-bromo-4-fluorobenzoyl)amino]phenyl}-N^5-[2-(piperidin-1-yl)ethyl]-1H-imidazole-4,5-dicarboxamide], for which the pIC50 was 8.52.
On to `O=C(Nc1ccc(NC(=O)c2nc[nH]c2C(=O)NCCN2CCCC(F)C2)cc1)c1ccc(F)cc1Cl` (centres unmarked) [Example 226, N^4-{4-[(2-chloro-4-fluorobenzoyl)amino]phenyl}-N^5-[2-(3-fluoropiperidin-1-yl)ethyl]-1H-imidazole-4,5-dicarboxamide], for which the negative logarithm of the IC50 (pIC50) was 7.40.
Take `CNC(=O)c1nc[nH]c1C(=O)Nc1ccc(NC(=O)c2ccc(F)cc2Cl)cc1` [Example 12, N^5-{4-[(2-chloro-4-fluorobenzoyl)amino]phenyl}-N^4-methyl-1H-imidazole-4,5-dicarboxamide]: the pIC50 is 6.59.
The figure for `COCCNC(=O)c1[nH]cnc1C(=O)Nc1ccc(NC(=O)c2ccc(F)cc2Cl)cc1` [Example 130, N^4-{4-[(2-chloro-4-fluorobenzoyl)amino]phenyl}-N^5-(2-methoxyethyl)-1H-imidazole-4,5-dicarboxamide] is 6.82; for `CNC(=O)c1nc[nH]c1C(=O)Nc1ccc(NC(=O)c2c(F)cc(F)cc2Cl)cc1` [Example 118, N^5-{4-[(2-chloro-4,6-difluorobenzoyl)amino]phenyl}-N^4-methyl-1H-imidazole-4,5-dicarboxamide] it is below 6.30.
The figure for `CNC(=O)c1nc[nH]c1C(=O)Nc1ccc(NC(=O)c2cc(OC)c(OC)cc2Cl)cc1` [Example 240, N^5-{4-[(2-chloro-4,5-dimethoxybenzoyl)amino]phenyl}-N^4-methyl-1H-imidazole-4,5-dicarboxamide] is 7.70; for `O=C(Nc1ccc(NC(=O)c2nc[nH]c2C(=O)NC2CCOC2)cc1)c1ccc(F)cc1Cl` (centres unmarked) [Example 236, N^4-{4-[(2-chloro-4-fluorobenzoyl)amino]phenyl}-N^5-(tetrahydrofuran-3-yl)-1H-imidazole-4,5-dicarboxamide] it is 6.37; for `CNC(=O)c1nc[nH]c1C(=O)Nc1ccc(NC(=O)c2ccc(F)cc2Cl)nc1` [Example 16, N^5-{6-[(2-chloro-4-fluorobenzoyl)amino]pyridin-3-yl}-N^4-methyl-1H-imidazole-4,5-dicarboxamide] it is 6.89.
The figure for `NC(=O)c1nc[nH]c1C(=O)Nc1ccc(NC(=O)c2ccc(F)cc2Cl)cc1` [Example 121] is below 6.30; for `O=C(Nc1ccc(NC(=O)c2[nH]cnc2C(=O)NCC(F)(F)F)cc1)c1ccc(F)cc1Cl` [Example 30, N^4-{4-[(2-chloro-4-fluorobenzoyl)amino]phenyl}-N^5-(2,2,2-trifluoroethyl)-1H-imidazole-4,5-dicarboxamide] it is 6.40.
`CNC(=O)c1nc[nH]c1C(=O)Nc1ccc(NC(=O)c2ccc(C)cc2Cl)cc1` [Example 244, N^5-{4-[(2-chloro-4-methylbenzoyl)amino]phenyl}-N^4-methyl-1H-imidazole-4,5-dicarboxamide]: the pIC50 is 6.82. Compared with the last compound, the pIC50 is 0.42 log units higher.
`CC1CCN(CCNC(=O)c2nc[nH]c2C(=O)Nc2ccc(NC(=O)c3ccc(F)cc3Cl)cc2)CC1` [Example 126, N^5-{4-[(2-chloro-4-fluorobenzoyl)amino]phenyl}-N^4-[2-(4-methylpiperidin-1-yl)ethyl]-1H-imidazole-4,5-dicarboxamide] had a pIC50 of 8.70.
With `CC1CCCN(CCNC(=O)c2[nH]cnc2C(=O)Nc2ccc(NC(=O)c3ccc(F)cc3Cl)cc2)C1` (centres unmarked) [Example 208, N^4-{4-[(2-chloro-4-fluorobenzoyl)amino]phenyl}-N^5-[2-(3-methylpiperidin-1-yl)ethyl]-1H-imidazole-4,5-dicarboxamide], the pIC50 is 7.40. This pIC50 lies 1.30 log units lower than the previous one.
